Test results taken from patent US20260132127A1, “NOVEL SPIRO COMPOUND” (MITSUBISHI TANABE PHARMA CORPORATION, priority 2021, published 2026).
pIC50: −log10 of the molar value.

target: T1, human TRH-DE (Homo sapiens, UniProt Q9UKU6); test: TRH-DE inhibition test (RapidFire MS measurement of product Cyclo (His-Pro)); type: biochemical; conditions: membrane fraction of Expi 293 cells expressing human TRH-DE; 10 μM TRH substrate; room temperature, 2 hours; 16-point concentration test
T1 construct: expressed in transfected cells; host or cells: Expi 293 cells (transient expression), membrane fraction
T1 sequence (Q9UKU6 1-1069): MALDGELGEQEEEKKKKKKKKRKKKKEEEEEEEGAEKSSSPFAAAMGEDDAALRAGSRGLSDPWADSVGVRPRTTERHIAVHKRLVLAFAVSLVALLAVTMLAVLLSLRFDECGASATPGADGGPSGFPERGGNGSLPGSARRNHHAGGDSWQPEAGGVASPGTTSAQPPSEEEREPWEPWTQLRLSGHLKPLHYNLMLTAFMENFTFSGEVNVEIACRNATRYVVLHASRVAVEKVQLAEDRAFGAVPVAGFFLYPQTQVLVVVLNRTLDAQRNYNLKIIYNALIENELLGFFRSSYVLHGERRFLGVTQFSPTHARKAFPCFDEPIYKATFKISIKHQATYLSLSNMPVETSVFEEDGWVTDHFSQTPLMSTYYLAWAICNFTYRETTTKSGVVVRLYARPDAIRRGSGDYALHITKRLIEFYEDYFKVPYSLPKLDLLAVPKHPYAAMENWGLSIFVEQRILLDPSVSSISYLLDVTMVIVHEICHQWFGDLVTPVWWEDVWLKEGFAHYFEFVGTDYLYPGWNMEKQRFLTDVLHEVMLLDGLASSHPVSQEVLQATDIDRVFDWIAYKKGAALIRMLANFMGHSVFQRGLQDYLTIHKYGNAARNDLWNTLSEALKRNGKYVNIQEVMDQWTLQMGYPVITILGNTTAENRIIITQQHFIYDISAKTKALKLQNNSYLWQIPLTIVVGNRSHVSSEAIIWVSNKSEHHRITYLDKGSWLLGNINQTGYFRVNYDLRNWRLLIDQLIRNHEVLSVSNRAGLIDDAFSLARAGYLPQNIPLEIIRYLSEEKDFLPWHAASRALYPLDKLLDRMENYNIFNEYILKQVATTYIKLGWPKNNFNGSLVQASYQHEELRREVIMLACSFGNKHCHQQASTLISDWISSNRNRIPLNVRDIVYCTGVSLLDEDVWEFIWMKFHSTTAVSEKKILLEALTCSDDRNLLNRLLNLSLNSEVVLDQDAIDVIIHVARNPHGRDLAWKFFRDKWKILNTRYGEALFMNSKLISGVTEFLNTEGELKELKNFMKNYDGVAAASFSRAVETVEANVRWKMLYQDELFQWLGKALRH
How it was run: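 Inhibition derived from product/internal-standard ratios of Cyclo(His-Pro), quantified by RapidFire triple-quadrupole MS after acetonitrile:methanol quench, with IC50 fitted over 16 concentrations. Enzyme source: membranes of Expi 293 cells transiently expressing human TRH-DE, 4 μg/ml, pH 7.4 phosphate buffer. Incubation with 10 μM substrate ran 2 h at room temperature.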

| pIC50 | Compound |
| --- | --- |
| 8.52 | C[C@@H]1COc2nc(C3CC3)ncc2C(=O)N1C1CC2(C1)CN(S(=O)(=O)c1ccccc1F)C2 [Example 331, (7R)-2-cyclopropyl-6-[2-(2-fluorophenyl)sulfonyl-2-azaspiro[3.3]heptan-6-yl]-7-methyl-7,8-dihydropyrimido[5,4-f][1,4]oxazepin-5-one] |
| 8.40 | C[C@@H]1COc2cc(C#N)cnc2C(=O)N1C1CC2(C1)CN(S(=O)(=O)c1ccccc1F)C2 [Example 332, (3R)-4-[2-(2-fluorophenyl)sulfonyl-2-azaspiro[3.3]heptan-6-yl]-3-methyl-5-oxo-2,3-dihydropyrido[2,3-f][1,4]oxazepin-8-carbonitrile] |
| 7.74 | C[C@@H]1COc2ncc(C#N)cc2C(=O)N1C1CC2(C1)CN(S(=O)(=O)c1ccccc1F)C2 [Example 333, (3R)-4-[2-(2-fluorophenyl)sulfonyl-2-azaspiro[3.3]heptan-6-yl]-3-methyl-5-oxo-2,3-dihydropyrido[3,2-f][1,4]oxazepin-7-carbonitrile] |
| 7.74 | Cc1nc2c(cc1C#N)C(=O)N(C1CC3(C1)CN(S(=O)(=O)c1ccccc1F)C3)[C@H](C)CO2 [Example 334] |
| 8.70 | CC(=O)c1cnc2c(c1)OC[C@@H](C)N(C1CC3(C1)CN(S(=O)(=O)c1ccccc1F)C3)C2=O [Example 336] |
| 8.70 | C[C@@H]1COc2cc(C(F)(F)F)cnc2C(=O)N1C1CC2(C1)CN(S(=O)(=O)c1ccccc1F)C2 [Example 337] |
| 8.40 | C[C@@H]1CNc2cccnc2C(=O)N1C1CC2(C1)CN(S(=O)(=O)c1ccccc1F)C2 [Example 338, (3R)-4-[2-(2-fluorophenyl)sulfonyl-2-azaspiro[3.3]heptan-6-yl]-3-methyl-2,3-dihydro-1H-pyrido[3,2-e][1,4]diazepin-5-one] |
| 7.11 | CC1CCc2[nH]c(=O)ccc2C(=O)N1C1CC2(C1)CN(S(=O)(=O)c1ccccc1F)C2 (stereo not shown) [Example 339, 6-[2-(2-fluorophenyl)sulfonyl-2-azaspiro[3.3]heptan-6-yl]-7-methyl-1,7,8,9-tetrahydropyrido[3,2-c]azepin-2,5-dione] |
| 8.30 | C[C@@H]1COc2nc(C(F)F)cnc2C(=O)N1C1CC2(C1)CN(S(=O)(=O)c1ccccc1F)C2 [Example 341, (7R)-3-(difluoromethyl)-8-[2-(2-fluorophenyl)sulfonyl-2-azaspiro[3.3]heptan-6-yl]-7-methyl-6,7-dihydropyrazino[2,3-f][1,4]oxazepin-9-one] |
| 7.30 | C[C@@H]1CCn2c(C3CC3)nc(C(F)F)c2C(=O)N1C1CC2(C1)CN(S(=O)(=O)c1ccccc1F)C2 [Example 342, (7R)-3-cyclopropyl-1-(difluoromethyl)-8-[2-(2-fluorophenyl)sulfonyl-2-azaspiro[3.3]heptan-6-yl]-7-methyl-6,7-dihydro-5H-imidazo[1,5-a][1,4]diazepin-9-one] |
| 7.74 | CC1Cc2cc(C(F)(F)F)ncc2C(=O)N1C1CC2(C1)CN(S(=O)(=O)c1ccccc1F)C2 (stereo not shown) [Example 343, 2-[2-(2-fluorophenyl)sulfonyl-2-azaspiro[3.3]heptan-6-yl]-3-methyl-6-(trifluoromethyl)-3,4-dihydro-2,7-naphthyridin-1-one] |
| 7.12 | CC1(C)Oc2cc(Cl)ncc2C(=O)N1C1CC2(C1)CN(S(=O)(=O)c1ccccc1F)C2 [Example 344, 7-chloro-3-[2-(2-fluorophenyl)sulfonyl-2-azaspiro[3.3]heptan-6-yl]-2,2-dimethyl-pyrido[3,4-e][1,3]oxazin-4-one] |
| 6.78 | C[C@@H]1Cn2c(ccc2C(F)(F)F)C(=O)N1C1CC2(C1)CN(S(=O)(=O)c1ccccc1F)C2 [Example 345, (3R)-2-[2-(2-fluorophenyl)sulfonyl-2-azaspiro[3.3]heptan-6-yl]-3-methyl-6-(trifluoromethyl)-3,4-dihydropyrrolo[1,2-a]pyrazin-1-one] |
| 8.70 | C[C@@H]1CNc2nc(C(F)(F)F)ccc2C(=O)N1C1CC2(C1)CN(S(=O)(=O)c1ccccc1F)C2 [Example 346, (3R)-4-[2-(2-fluorophenyl)sulfonyl-2-azaspiro[3.3]heptan-6-yl]-3-methyl-8-(trifluoromethyl)-2,3-dihydro-1H-pyrido[2,3-e][1,4]diazepin-5-one] |
| 6.73 | Cc1nc2c(s1)C(C)N(C1CC3(C1)CN(S(=O)(=O)c1ccccc1F)C3)C2=O (stereo not shown) [Example 347] |
| 8.10 | C[C@@H]1COc2nc(C3CCC3)ncc2C(=O)N1C1CC2(C1)CN(S(=O)(=O)c1ccccc1F)C2 [Example 367] |
| 7.89 | CCc1ncc2c(n1)OC[C@@H](C)N(C1CC3(C1)CN(S(=O)(=O)c1ccccc1F)C3)C2=O [Example 368] |
| 8.10 | CC(C)Oc1ncc2c(n1)OC[C@@H](C)N(C1CC3(C1)CN(S(=O)(=O)c1ccccc1F)C3)C2=O [Example 369, (7R)-6-[2-(2-fluorophenyl)sulfonyl-2-azaspiro[3.3]heptan-6-yl]-7-methyl-2-propan-2-yloxy-7,8-dihydropyrimid[5,4-f][1,4]oxazepin-5-one] |
| 8.10 | COc1ncc2c(n1)OC[C@@H](C)N(C1CC3(C1)CN(S(=O)(=O)c1ccccc1F)C3)C2=O [Example 370] |
| 8.30 | C[C@@H]1COc2nc(OC3CCC3)ncc2C(=O)N1C1CC2(C1)CN(S(=O)(=O)c1ccccc1F)C2 [Example 371] |

| pIC50 | Compound |
| --- | --- |
| 8.40 | C[C@@H]1COc2nc(OC3CCCC3)ncc2C(=O)N1C1CC2(C1)CN(S(=O)(=O)c1ccccc1F)C2 [Example 372] |
| 8.30 | C[C@@H]1COc2nc(OC3CC3)ncc2C(=O)N1C1CC2(C1)CN(S(=O)(=O)c1ccccc1F)C2 [Example 373] |
| 8.10 | CCOc1ncc2c(n1)OC[C@@H](C)N(C1CC3(C1)CN(S(=O)(=O)c1ccccc1F)C3)C2=O [Example 374] |
| 7.96 | C[C@@H]1COc2nc(OC3CCOCC3)ncc2C(=O)N1C1CC2(C1)CN(S(=O)(=O)c1ccccc1F)C2 [Example 375] |
| 7.68 | C[C@@H]1COc2nc(O[C@@H]3CCOC3)ncc2C(=O)N1C1CC2(C1)CN(S(=O)(=O)c1ccccc1F)C2 [Example 376] |
| 7.85 | C[C@@H]1COc2nc(O[C@H]3CCOC3)ncc2C(=O)N1C1CC2(C1)CN(S(=O)(=O)c1ccccc1F)C2 [Example 377] |
| 8.52 | C[C@@H]1COc2nc(N(C)C)ncc2C(=O)N1C1CC2(C1)CN(S(=O)(=O)c1ccccc1F)C2 [Example 380] |
| 8.70 | C[C@@H]1COc2nc(N3CCCC3)ncc2C(=O)N1C1CC2(C1)CN(S(=O)(=O)c1ccccc1F)C2 [Example 381] |
| 8.40 | C[C@@H]1COc2nc(N3CCCCC3)ncc2C(=O)N1C1CC2(C1)CN(S(=O)(=O)c1ccccc1F)C2 [Example 382] |
| 7.96 | C[C@@H]1COc2nc(N3CCOCC3)ncc2C(=O)N1C1CC2(C1)CN(S(=O)(=O)c1ccccc1F)C2 [Example 383] |
| 8.30 | C[C@@H]1COc2nc(N3CCCOCC3)ncc2C(=O)N1C1CC2(C1)CN(S(=O)(=O)c1ccccc1F)C2 [Example 384] |
| 8.40 | COC1CCN(c2ncc3c(n2)OC[C@@H](C)N(C2CC4(C2)CN(S(=O)(=O)c2ccccc2F)C4)C3=O)CC1 [Example 387] |
| 8.40 | C[C@@H]1COc2nc(N3C[C@H]4COC[C@H]4C3)ncc2C(=O)N1C1CC2(C1)CN(S(=O)(=O)c1ccccc1F)C2 [Example 388] |
| 7.92 | C[C@@H]1COc2nc(N3[C@@H]4CC[C@H]3COC4)ncc2C(=O)N1C1CC2(C1)CN(S(=O)(=O)c1ccccc1F)C2 [Example 389] |
| 7.96 | C[C@@H]1COc2nc(N3[C@@H]4CCC[C@H]3COC4)ncc2C(=O)N1C1CC2(C1)CN(S(=O)(=O)c1ccccc1F)C2 [Example 390] |
| 8.40 | C[C@@H]1COc2nc(N3CCOC(F)(F)C3)ncc2C(=O)N1C1CC2(C1)CN(S(=O)(=O)c1ccccc1F)C2 [Example 391] |
| 8.52 | C[C@@H]1COc2nc(N3[C@@H]4COC[C@H]3C4)ncc2C(=O)N1C1CC2(C1)CN(S(=O)(=O)c1ccccc1F)C2 [Example 392] |
| 8.52 | CO[C@H]1CCN(c2ncc3c(n2)OC[C@@H](C)N(C2CC4(C2)CN(S(=O)(=O)c2ccccc2F)C4)C3=O)C1 [Example 393] |
| 8.40 | CO[C@@H]1CCN(c2ncc3c(n2)OC[C@@H](C)N(C2CC4(C2)CN(S(=O)(=O)c2ccccc2F)C4)C3=O)C1 [Example 394] |
| 8.52 | C[C@@H]1COc2nc(N3CCC3)ncc2C(=O)N1C1CC2(C1)CN(S(=O)(=O)c1ccccc1F)C2 [Example 395] |
